Experimental data from publication PMC12879253 (Molecular pharmaceutics, 2025).

Columns and labels:
[1] = tested on: NCI/ADR-RES drug resistant ovarian cancer xenografts; test: Efficacy in NCI/ADR-RES xenografts; assay type: in vivo, mouse; details: doxorubicin 2.0 mg/kg iv, terminated after the third dose
[2] = tested on: NCI/ADR-RES ovarian cancer cell; details: overexpresses p-gp; cited from earlier work
[3] = aqueous buffer; cited from earlier work

SMILES | body weight loss [1] | effectiveness in drug-resistant cells [2] | half-life of hydrolysis to dox [3] [min]
COc1cccc2c1C(=O)c1c(O)c3c(c(O)c1C2=O)C[C@@](O)(C(=O)CO)C[C@@H]3O[C@H]1C[C@H](N)[C@H](O)[C@H](C)O1 [dox, Doxorubicin] | more than 20% | not effective | 
COc1cccc2c1C(=O)c1c(O)c3c(c(O)c1C2=O)C[C@@](O)(C(=O)CO)C[C@@H]3O[C@H]1C[C@@H]2NCO[C@@H]2[C@H](C)O1 [doxaz, Doxazolidine] |  | effective | 3
CC(=O)O[C@H]1C(=O)[C@@]2(C)[C@H]([C@H](OC(=O)c3ccccc3)[C@]3(O)C[C@H](OC(=O)[C@H](O)[C@@H](NC(=O)c4ccccc4)c4ccccc4)C(C)=C1C3(C)C)[C@]1(OC(C)=O)CO[C@@H]1C[C@@H]2O [paclitaxel] |  | not effective | 
